# Assay results from article PMC8695447, “Novel Small Molecules Capable of Blocking mtRAS-Signaling Pathway” (Frontiers in Oncology, 2021).
# How the values were obtained:
# Type in all cases: cell-based
# SW480 (KRAS-G12V) = assay: Anti-proliferation assay on SW480; conditions: Homo sapiens, SW480; 72 h treatment; average with SD (n = 3, duplicate)
# Procedure: (§1) Ba/F3-parental, OCI-AML3, U397 cells were purchased from DSMZ. MDA-MB-231, HCT-116, AsPC-1, H358, HT-29, SW480, and DU-145 cells were obtained from KCLB. MDA-MB-468 cells were obtained from ATCC. All cells were maintained in RPMI with 10% FBS and antibiotics. Cells were grown in a humidified 5% CO2 incubator at 37°C. Ba/F3-parental cells were grown in the presence of 10 ng/ml IL-3. NRAS-G12D or NRAS-G12V transformed Ba/F3 cell lines (Ba/F3-NRAS-G12D, and Ba/F3-NRAS-G12V, respectively) were cultured without IL-3, which were established by the procedure described as previously ([30]).
# (§2) Approximately 3.0 × 10^3 cells/well were seeded in a 96-well cell culture plate. After stabilization, 1/3 serially diluted compound in DMSO was treated to the cell. […] All GI50 values were obtained in duplicate with three independent assays and averages with standard deviation are presented.
# [1] = tested on: cancer cells with mtRAS including H358, AsPC-1, DU-145, SW480, and MDA-MB-231; assay: Migration assay (scratch assay); conditions: 0.01 µM
# Procedure: For migration assay, scratch assay was conducted. Each cells (2.0 × 10^5 cells/well) were seeded in 24-well plates. After cellular attachment, cells were scratched with a SPLScarTM Scratcher (SPL Life Sciences, #201924) and the detached cells were removed by PBS washing twice. Cells were incubated in complete media with 0.01 μM concentrations of each compounds for indicated time. The images were acquired before and after incubation with compounds (40× magnification), and percent of migration were accessed using ImageJ (n = 3).
# Figure 6 The effects of SIJ1795 and SIJ1772 on migration and invasion activities of cancer cells harboring mtRAS. (A) Scratch assay result for cell migration ability determination. Each cell monolayers were scratched and incubated with test compounds at 0.01 μM. After 8 h (MDA-MB-231) or 24 h (DU-145, SW480, HCT-116) or 48 h (AsPC-1) or 72 h (HT-29), cells were stained with crystal violet. Migrated areas were photographed with 40× magnification. Migrated area was determined by ImageJ (n = 3). (B) Boyden chamber assay result for cell invasion ability determination. Indicated compounds of 0.01 μM were treated and incubated for 48 h Invaded cells were stained by crystal violet and photographed. Stained cells were counted by ImageJ (n = 3). Statistical significance was determined using a one-way ANOVA analysis (*p < 0.05, **p < 0.01, ***p < 0.001, ****p < 0.0001).
# H358 (KRAS-G12C) = assay: Anti-proliferation assay on H358; conditions: Homo sapiens, NCI-H358; 72 h treatment; average with SD (n = 3, duplicate)
# Procedure: as §1, §2
# [2] = tested on: phospho-70S6K1, -JNK, -p38 in Ba/F3-NRAS-G12D and OCI-AML cells; assay: Western blot, ACK1 and GCK downstream signaling (phospho-70S6K1, -JNK, -p38); conditions: 0.1, 1, 10 μM for 2 h
# Procedure: (§3) Approximately 1 × 10^6 cells per well were seeded in a 6-well cell culture plate. After cell adhesion, each compounds were treated for 2 h with indicated concentration and conducted brief washing twice by ice-cold PBS. Cells were lysed by NP40 buffer (50 mM Tris–HCl pH 7.4, 1% NP40, 2 mM EDTA, 150 mM NaCl) in the presence of protease inhibitor cocktail (Roche, #11873580001) and phosphatase inhibitor cocktail (Roche, #04906837001). Each sample was loaded with same amount of total protein and separated by SDS-PAGE gel. After transferred to nitrocellulose membrane, blocking with 5% skim milk (in TBS/T) was followed. The membrane was incubated 4°C for overnight with uniformly diluted primary antibodies at 1:1,000 (v/v) in TBS/T. The following primary antibodies were used: anti-p-AKT (Cell Signaling, #9271), anti-p-ERK1/2 (Cell Signaling, #4370), anti-PARP (Cell Signaling, #9542), anti-GAPDH (Cell Signaling, #5174), anti-p-70S6K1 (Cell Signaling, #9204), anti-p-JNK(Cell Signaling, #9251), anti-p-p38 (Cell Signaling, #9216), and anti-p-MEK1/2 (Santa Cruz, sc-81503). […] Chemiluminescence signals were detected by ImageQuant™ LAS 4000 (GE Healthcare). […]
# Ba/F3-NRAS-G12V cells = assay: Anti-proliferation assay (CellTiter Glo) on Ba/F3-NRAS-G12V; conditions: Mus musculus, BaF3; 72 h treatment; average with SD (n = 3, duplicate)
# Procedure: as §1, §2
# [3] = tested on: phospho-AKT, -MEK, -ERK in cancer cells harboring mtRAS; assay: Western blot, phospho-AKT, -MEK, -ERK in cancer cells harboring mtRAS; conditions: 0.1, 1, and 10 μM for 2 h
# Procedure: as §3
# [4] = tested on: phospho-AKT, -MEK, -ERK in Ba/F3-NRAS-G12D and Ba/F3-NRAS-G12V cells; assay: Western blot, phospho-AKT, -MEK, -ERK in Ba/F3 cells transformed with mtRAS; conditions: 2 h; for inhibitory capabilities on phosphorylation level of MEK, ERK, and AKT at 1 µM relative to GNF-7: Ba/F3 mtRAS cells; for phospho-AKT, -MEK, -ERK levels at 10 µM: Ba/F3 cells transformed with mtRAS (NRAS-G12D and NRAS-G12V)
# Procedure: Approximately 1 × 10^6 cells per well were seeded in a 6-well cell culture plate. After cell adhesion, each compounds were treated for 2 h with indicated concentration and conducted brief washing twice by ice-cold PBS. Cells were lysed by NP40 buffer (50 mM Tris–HCl pH 7.4, 1% NP40, 2 mM EDTA, 150 mM NaCl) in the presence of protease inhibitor cocktail (Roche, #11873580001) and phosphatase inhibitor cocktail (Roche, #04906837001). Each sample was loaded with same amount of total protein and separated by SDS-PAGE gel. After transferred to nitrocellulose membrane, blocking with 5% skim milk (in TBS/T) was followed. The membrane was incubated 4°C for overnight with uniformly diluted primary antibodies at 1:1,000 (v/v) in TBS/T. The following primary antibodies were used: anti-p-AKT (Cell Signaling, #9271), anti-p-ERK1/2 (Cell Signaling, #4370), anti-PARP (Cell Signaling, #9542), anti-GAPDH (Cell Signaling, #5174), anti-p-70S6K1 (Cell Signaling, #9204), anti-p-JNK(Cell Signaling, #9251), anti-p-p38 (Cell Signaling, #9216), and anti-p-MEK1/2 (Santa Cruz, sc-81503). Each membrane was incubated with HRP-conjugated goat anti-Rabbit secondary antibody (Gendepot, SA002-500) or HRP-conjugated goat anti-Mouse secondary antibody (Gendepot, SA001-500) for 1 h (1:10,000, v/v) in TBS/T at room temperature and followed ECL solution treatment. Chemiluminescence signals were detected by ImageQuant™ LAS 4000 (GE Healthcare).
# Figure 1 The effects of (A) SIJ1795 and (B) SIJ1772 on MAPK and PI3K/AKT signaling pathways in Ba/F3 cells transformed with mtRAS (NRAS-G12D and NRAS-G12V). Cells were treated with 0.1, 1, and 10 μM of SIJ1795, SIJ1772, and GNF-7 for 2 h. Western blot analysis was conducted to evaluate the phospho-AKT, -MEK, -ERK levels. GAPDH was used as the loading control.
GI50 (SW480 (KRAS-G12V)),GI50 (H358 (KRAS-G12C)),GI50 (Ba/F3-NRAS-G12V cells),Compound,reduction in migration capabilities [1],"phosphorylation of 70S6K1 (downstream molecule of ACK), JNK, p38 (downstream molecule of GCK) [2]",signaling inhibitory activities in cancer cells with mtRAS relative to GNF-7 [3],"inhibitory capabilities on phosphorylation level of MEK, ERK, and AKT at 1 µM relative to GNF-7 [4]","phospho-AKT, -MEK, -ERK levels at 10 µM [4]"
447 ± 173 nM,125 ± 17 nM,96 ± 9 nM,"Cc1ccc(NC(=O)c2cccc(C(F)(F)F)c2)cc1N1Cc2cnc(Nc3cnn(C4CCN(S(C)(=O)=O)CC4)c3)nc2N(C)C1=O [SIJ1772, N-(4-Methyl-3-(1-methyl-7-((1-(1-(methylsulfonyl)piperidin-4-yl)-1H-pyrazol-4-yl)amino)-2-oxo-1,4-dihydropyrimido[4,5-d]pyrimidin-3(2H)-yl)phenyl)-3-(trifluoromethyl)benzamide]",over 50%,effectively inhibited,comparable to those of GNF-7,slightly increased relative to that of GNF-7,completely inhibited
245 ± 12 nM,203 ± 12 nM,75 ± 45 nM,"CCN1CCN(c2cccc(Nc3ncc4c(n3)N(C)C(=O)N(c3cc(NC(=O)c5cccc(C(F)(F)F)c5)ccc3C)C4)c2)CC1 [SIJ1795, N-(3-(7-((3-(4-Ethylpiperazin-1-yl)phenyl)amino)-1-methyl-2-oxo-1,4-dihydropyrimido[4,5-d]pyrimidin-3(2H)-yl)-4-methylphenyl)-3-(trifluoromethyl)benzamide]",over 50%,effectively inhibited,comparable to those of GNF-7,slightly increased relative to that of GNF-7,completely inhibited
